# Experimental data published in patent US20040067507A1, “Liver inflammation predictive genes” (priority 2002, published 2004).
# Read-outs that look alike come from different tables or passages of the source.
# Test system: Sprague Dawley rats Crl:CD
# Assay type: in vivo, rat
# Description: In addition to the database described and utilized herein, other toxicology gene expression databases may be generated, and used to identify additional liver toxicity biomarkers, which may also be employed in the practice of the liver inflammation prediction methods of the invention. […] An example of compounds, dose levels, liver toxicity classifications and histopathology scores used in the Examples which follow are provided in Table 1. The compounds and dose levels are abbreviated in the Abbreviation Column. The Inflammation Score relates the histopathology liver inflammation, a score of “2” or higher indicates histopathology of increasing severity.
# Identification of Correlating Genes: For the purpose of identifying candidate predictive genes, the database preferably includes histopathology scores for each animal which has been exposed to one or more agent(s). […] The scores are numerical scores that reflect the occurrence and severity of histopathological changes. These scores can be adjusted to have similar range to gene expression changes. […] Because the scores are numerical, they are suitable for use with a variety of statistical correlation and similarity measures.
# Sprague Dawley rats Crl:CD from Charles River, Raleigh, N.C. were divided into treated rats that receive a specific concentration of the compound (see Table 1) and the control rats that only received the vehicle in which the compound is mixed (e.g., saline).
# At specified timepoints (6 h, 24 h and 72 h) after administration (intraperitoneal route) of the compound, a set number of rats (usually 3 control and 3 treated) were euthanized and tissues collected. Each rat was heavily sedated with an overdose of CO2 by inhalation and a maximum amount of blood drawn. Exsanguination of the rat by this drawing of blood kills the rat. The method of collecting the tissues is very important and ensures preserving the quality of the mRNA in the tissues. The body of the rat was then opened up and prosectors rapidly removed the tissues (including liver) and immediately placed them into liquid nitrogen. […] The organs/tissues were then packaged into well-labeled plastic freezer quality bags and stored at −80 degrees until needed for isolation of the mRNA from a portion of the organ/tissue sample.
# Correlation with Histopathology Scores: Histopathology scores for each animal (assigned on a compound-dose basis as indicated in Table 1) were entered with gene expression data by using the GeneSpring™ ‘Drawn Gene’ function. Correlations between inflammation histopathology scores and gene expression were conducted with the distance measures listed below: […]
# [1] = 1.3 mg/kg i.p., 72 h, 1=no histopathology, 2 or higher=increasing severity
# [2] = 5 mg/kg i.p., 72 h, 1=no histopathology, 2 or higher=increasing severity
# [3] = 16 mg/kg i.p., 72 h, 1=no histopathology, 2 or higher=increasing severity
# [4] = 40 mg/kg i.p., 72 h, 1=no histopathology, 2 or higher=increasing severity
# [5] = 160 mg/kg i.p., 72 h, 1=no histopathology, 2 or higher=increasing severity
# [6] = 0.5 mg/kg i.p., 72 h, 1=no histopathology, 2 or higher=increasing severity
# [7] = 2 mg/kg i.p., 72 h, 1=no histopathology, 2 or higher=increasing severity
# [8] = Sprague Dawley Crl:CD, rat, in vivo
# [9] = 14 mg/kg i.p., 72 h, 1=no histopathology, 2 or higher=increasing severity
# [10] = 20 mg/kg i.p., 72 h, 1=no histopathology, 2 or higher=increasing severity
# [11] = 80 mg/kg i.p., 72 h, 1=no histopathology, 2 or higher=increasing severity
# [12] = Sprague Dawley Crl:CD, rat, in vivo, ip
# [13] = 75 mg/kg i.p., 72 h, 1=no histopathology, 2 or higher=increasing severity
# [14] = 8 mg/kg i.p., 72 h, 1=no histopathology, 2 or higher=increasing severity
# [15] = 30 mg/kg i.p., 72 h, 1=no histopathology, 2 or higher=increasing severity
# [16] = 38 mg/kg i.p., 72 h, 1=no histopathology, 2 or higher=increasing severity
# [17] = 150 mg/kg i.p., 72 h, 1=no histopathology, 2 or higher=increasing severity
# [18] = 25 mg/kg i.p., 72 h, 1=no histopathology, 2 or higher=increasing severity
# [19] = 100 mg/kg i.p., 72 h, 1=no histopathology, 2 or higher=increasing severity
# [20] = 12 mg/kg i.p., 72 h, 1=no histopathology, 2 or higher=increasing severity
# [21] = 15 mgkg i.p., 72 h, 1=no histopathology, 2 or higher=increasing severity
# [22] = 60 mgkg i.p., 72 h, 1=no histopathology, 2 or higher=increasing severity
# [23] = 250 mg/kg i.p., 72 h, 1=no histopathology, 2 or higher=increasing severity
# [24] = 0.1 mg/kg i.p., 72 h, 1=no histopathology, 2 or higher=increasing severity
# [25] = 0.4 mg/kg i.p., 72 h, 1=no histopathology, 2 or higher=increasing severity
molecule,measurement,setting,value
CN(Cc1cnc2nc(N)nc(N)c2n1)c1ccc(C(=O)N[C@@H](CCC(=O)O)C(=O)O)cc1 [methotrexate],Liver Inflammation,"1.3 mg/kg i.p., 72 h",no
same,Liver Necrosis,"1.3 mg/kg i.p., 72 h",no
same,Inflamm. Score,[1],1
same,Necr. Score,[1],1
same,Liver Inflammation,"5 mg/kg i.p., 72 h",no
same,Liver Necrosis,"5 mg/kg i.p., 72 h",no
same,Inflamm. Score,[2],1
same,Necr. Score,[2],1
O=NN(CCCl)C(=O)NCCCl [carmustine],Liver Inflammation,"16 mg/kg i.p., 72 h",no
same,Liver Necrosis,"16 mg/kg i.p., 72 h",no
same,Inflamm. Score,[3],1
same,Necr. Score,[3],1
CCC(=O)O[C@H]1[C@H](O[C@@H]2[C@@H](C)[C@H](O[C@H]3C[C@@](C)(OC)[C@@H](O)[C@H](C)O3)[C@@H](C)C(=O)O[C@H](CC)[C@@](C)(O)[C@H](O)[C@@H](C)C(=O)[C@H](C)C[C@@]2(C)O)O[C@H](C)C[C@@H]1N(C)C [erythromycin estolate],Liver Inflammation,"40 mg/kg i.p., 72 h",no
same,Liver Necrosis,"40 mg/kg i.p., 72 h",no
same,Inflamm. Score,[4],1
same,Necr. Score,[4],1
same,Liver Inflammation,"160 mg/kg i.p., 72 h",no
same,Liver Necrosis,"160 mg/kg i.p., 72 h",no
same,Inflamm. Score,[5],1
same,Necr. Score,[5],1
C[C@@H]1C[C@@H]([C@H](O)CC2CC(=O)NC(=O)C2)C(=O)[C@@H](C)C1 [cycloheximide],Liver Inflammation,"0.5 mg/kg i.p., 72 h",no
same,Liver Necrosis,"0.5 mg/kg i.p., 72 h",no
same,Inflamm. Score,[6],1
same,Necr. Score,[6],1
same,Liver Inflammation,"2 mg/kg i.p., 72 h",no
same,Liver Necrosis,"2 mg/kg i.p., 72 h",no
same,Inflamm. Score,[7],1
same,Necr. Score,[7],1
CN1CCN(C2=Nc3cc(Cl)ccc3Nc3ccccc32)CC1 [clozapine],Inflamm. Score,[8],1
same,Necr. Score,[8],1
same,Liver Inflammation,"rat, in vivo",no
same,Liver Necrosis,"rat, in vivo",no
CS(=O)(=O)OCCCCOS(C)(=O)=O [busulfan],Liver Inflammation,"14 mg/kg i.p., 72 h",no
same,Liver Necrosis,"14 mg/kg i.p., 72 h",no
same,Inflamm. Score,[9],1
same,Necr. Score,[9],1
CCC1(c2ccccc2)C(=O)NC(=O)NC1=O [phenobarbital],Liver Inflammation,"20 mg/kg i.p., 72 h",no
same,Liver Necrosis,"20 mg/kg i.p., 72 h",no
same,Inflamm. Score,[10],1
same,Necr. Score,[10],1
same,Liver Inflammation,"80 mg/kg i.p., 72 h",no
same,Liver Necrosis,"80 mg/kg i.p., 72 h",no
same,Inflamm. Score,[11],1
same,Necr. Score,[11],1
c1ccccc1 [benzene],Inflamm. Score,[12],1
same,Necr. Score,[12],1
same,Liver Inflammation,"rat, in vivo, ip",no
same,Liver Necrosis,"rat, in vivo, ip",no
ClC(Cl)Cl [chloroform],Inflamm. Score,[12],1
same,Necr. Score,[12],1
same,Liver Inflammation,"rat, in vivo, ip",no
same,Liver Necrosis,"rat, in vivo, ip",no
CN(N=O)C(=O)N[C@H]1C(O)O[C@H](CO)[C@@H](O)[C@@H]1O (mixture of isomers) [streptozotocin],Liver Inflammation,"20 mg/kg i.p., 72 h",no
same,Liver Necrosis,"20 mg/kg i.p., 72 h",no
same,Inflamm. Score,[10],1
same,Necr. Score,[10],1
same,Liver Inflammation,"75 mg/kg i.p., 72 h",no
same,Liver Necrosis,"75 mg/kg i.p., 72 h",no
same,Inflamm. Score,[13],1
same,Necr. Score,[13],1
CN(C)[C@@H]1C(O)=C(C(N)=O)C(=O)[C@@]2(O)C(O)=C3C(=O)c4c(O)cccc4[C@@](C)(O)[C@H]3C[C@@H]12 [tetracycline],Inflamm. Score,[8],1
same,Liver Inflammation,"rat, in vivo",no
CN(C)CCCN1c2ccccc2Sc2ccc(Cl)cc21 [chlorpromazine],Liver Inflammation,"8 mg/kg i.p., 72 h",no
same,Liver Necrosis,"8 mg/kg i.p., 72 h",no
same,Inflamm. Score,[14],1
same,Necr. Score,[14],1
same,Liver Inflammation,"30 mg/kg i.p., 72 h",no
same,Liver Necrosis,"30 mg/kg i.p., 72 h",no
same,Inflamm. Score,[15],1
same,Necr. Score,[15],1
COc1ccc(C[C@H](N)C(=O)N[C@H]2[C@@H](O)[C@H](n3cnc4c(N(C)C)ncnc43)O[C@@H]2CO)cc1 [puromycin],Liver Inflammation,"38 mg/kg i.p., 72 h",no
same,Liver Necrosis,"38 mg/kg i.p., 72 h",no
same,Inflamm. Score,[16],1
same,Necr. Score,[16],1
same,Liver Inflammation,"150 mg/kg i.p., 72 h",no
same,Liver Necrosis,"150 mg/kg i.p., 72 h",no
same,Inflamm. Score,[17],1
same,Necr. Score,[17],1
C=C[C@H]1C[N@@]2CC[C@H]1C[C@@H]2[C@@H](O)c1ccnc2ccc(OC)cc12 [quinidine],Liver Inflammation,"25 mg/kg i.p., 72 h",no
same,Liver Necrosis,"25 mg/kg i.p., 72 h",no
same,Inflamm. Score,[18],1
same,Necr. Score,[18],1
same,Liver Inflammation,"100 mg/kg i.p., 72 h",no
same,Liver Necrosis,"100 mg/kg i.p., 72 h",no
same,Inflamm. Score,[19],1
same,Necr. Score,[19],1
C[C@@H]1C[C@H]2[C@@H]3CCC4=CC(=O)C=C[C@]4(C)[C@@]3(F)[C@@H](O)C[C@]2(C)[C@@]1(O)C(=O)CO [dexamethasone],Inflamm. Score,[8],1
same,Necr. Score,[8],1
same,Liver Inflammation,"rat, in vivo",no
same,Liver Necrosis,"rat, in vivo",no
COc1cccc2c1C(=O)c1c(O)c3c(c(O)c1C2=O)C[C@@](O)(C(=O)CO)C[C@@H]3O[C@H]1C[C@H](N)[C@H](O)[C@H](C)O1 [doxorubicin],Liver Inflammation,"12 mg/kg i.p., 72 h",no
same,Liver Necrosis,"12 mg/kg i.p., 72 h",no
same,Inflamm. Score,[20],1
same,Necr. Score,[20],1
S=C=Nc1cccc2ccccc12 [1-naphthylisothiocyanate],Liver Necrosis,"15 mgkg i.p., 72 h",no
same,Inflamm. Score,[21],1
same,Necr. Score,[21],1
same,Liver Necrosis,"60 mgkg i.p., 72 h",yes
same,Inflamm. Score,[22],2
same,Necr. Score,[22],2
gentamicin,Liver Inflammation,"38 mg/kg i.p., 72 h",no
same,Liver Necrosis,"38 mg/kg i.p., 72 h",no
same,Inflamm. Score,[16],1
same,Necr. Score,[16],1
same,Liver Inflammation,"150 mg/kg i.p., 72 h",no
same,Liver Necrosis,"150 mg/kg i.p., 72 h",no
same,Inflamm. Score,[17],1
same,Necr. Score,[17],1
CCOC(=O)C(C)(C)Oc1ccc(Cl)cc1 [clofibrate],Liver Inflammation,"75 mg/kg i.p., 72 h",no
same,Liver Necrosis,"75 mg/kg i.p., 72 h",no
same,Inflamm. Score,[13],1
same,Necr. Score,[13],1
same,Liver Inflammation,"250 mg/kg i.p., 72 h",no
same,Liver Necrosis,"250 mg/kg i.p., 72 h",no
same,Inflamm. Score,[23],1
same,Necr. Score,[23],1
C[C@]12CC[C@@H]3c4ccc(O)cc4CC[C@H]3[C@@H]1CC[C@@H]2O [estradiol],Liver Inflammation,"0.1 mg/kg i.p., 72 h",no
same,Liver Necrosis,"0.1 mg/kg i.p., 72 h",no
same,Inflamm. Score,[24],1
same,Necr. Score,[24],1
same,Liver Inflammation,"0.4 mg/kg i.p., 72 h",no
same,Liver Necrosis,"0.4 mg/kg i.p., 72 h",no
same,Inflamm. Score,[25],1
same,Necr. Score,[25],1
C[C@@H]1[C@H](O)[C@@H](C)/C=C/C=C/C=C/C=C/C=C/C=C/C=C/[C@H](O[C@@H]2O[C@H](C)[C@@H](O)[C@H](N)[C@@H]2O)C[C@@H]2O[C@](O)(C[C@@H](O)C[C@@H](O)[C@H](O)CC[C@@H](O)C[C@@H](O)CC(=O)O[C@H]1C)C[C@H](O)[C@H]2C(=O)O [amphotericin B],Liver Inflammation,"5 mg/kg i.p., 72 h",no
same,Liver Necrosis,"5 mg/kg i.p., 72 h",no
same,Inflamm. Score,[2],1
same,Necr. Score,[2],1
same,Liver Inflammation,"20 mg/kg i.p., 72 h",no
same,Liver Necrosis,"20 mg/kg i.p., 72 h",no
same,Inflamm. Score,[10],1
same,Necr. Score,[10],1
